# Experimental data as given in patent US12728123B2, “Product” (Sesh Products Inc., priority 2012, dated 2026).
# Details: at a pH of about 8.8
smiles,measurement,value
CN1CCCC1c1cccnc1 (stereo not shown) [nicotine],nicotine in the nonprotonated form,approximately 90%
